Measurements as given in publication PMC4604124, “In Vitro Characterization of the Pharmacological Properties of the Anti-Cancer Chelator, Bp4eT, and Its Phase I Metabolites” (PLoS ONE, 2015).
Values joined by “and” are separate entries in the source; they are usually repeats but may differ in a detail not shown here. Equal values may be shown once. Read-outs that look alike come from different tables or passages of the source.

Tests used:
[1] = test system: caspase 8; assay: Caspase activity, luminescent kit, caspase 8; assay type: cell-based, human; settings: for Caspase 8 activity, % of the control: 100 nM, MCF-7, corrected for viability; for kaspáza 8, průměry (means of raw signal): mean of 4 experiments; for kaspáza 8, raw signal / kaspáza 8, signal / viabilita: individual experiments by date
Description: (§1) To assess the effect of the compounds on caspase activity, MCF-7 cells were incubated with 100 nM Bp4eT or its metabolites for 3, 24 or 72 h/37°C in 96-well plates, as described above. The cells were then lysed by adding 100 μL of cold lysis buffer (100 mM HEPES, 10 mM CHAPS, 10 mM D-L-dithiothreitol, pH 7.4) to 100 μL of medium in each well. Lysates were immediately frozen at -80°C. Thawed lysates were used to assess caspase activity using luminescent kits for caspases 3/7, 8 and 9 (Promega, Madison, WI, USA). The luminescence was measured using the Tecan Infinite 200M plate reader. Caspase activity in the experimental groups was corrected according to the cellular viability of each group and expressed as a percentage of activity of the untreated control (100%).

[2] = test system: HL-60 human promyelocytic leukemia cells; assay: MTT cytotoxicity assay, HL-60 cells; assay type: cell-based; settings: for IC50: MTT
Description: For cytotoxicity experiments, cancer cells were seeded at a density of 5,000 (MCF-7), 10,000 (HL-60) or 2,000 cells/well (HCT116 and A549) in 96-well plates (TPP) for 24 h/37°C prior to the addition of examined agents. The non-cancerous cells, 3T3 and H9c2 cells, were cultured for 24 h/37°C in 96-well plates at a density of 10,000 cells/well, the medium was then changed to serum- and pyruvate-free DMEM (Sigma-Aldrich) and incubated with the cells for another 24 h/37°C. The cytotoxic effects of Bp4eT and its metabolites were studied at different concentrations after a 72 h/37°C incubation. In order to aid the dissolution of the lipophilic ligands, 0.1% dimethyl sulfoxide (v/v) (DMSO; Sigma-Aldrich) was present in the culture medium of all groups. At this concentration, DMSO had no effect on cellular proliferation or viability.
The viability of cells were determined using an MTT assay (Sigma-Aldrich) according to previously established methods. The optical density of soluble MTT was measured at λ = 570 nm, subtracting the λ = 690 nm background using a Tecan Infinite 200M plate reader (Tecan Group, Männedorf, Switzerland). The viability or proliferation of experimental groups was expressed as a percentage of the untreated controls (100%).
SigmaStat for Windows 3.5 (Systat Software, San Jose, CA, USA) statistical software package was utilized to analyze results. The data are expressed as the mean ± SD of a given number of experiments. Statistical significance was determined using a one-way ANOVA with a Bonferroni post-hoc test or Student’s t-test. The results were considered to be statistically significant when p < 0.05. The IC50 values were calculated using CalcuSyn 2.0 software (Biosoft, Cambridge, UK). Cell cycle analysis was evaluated using MultiCycle AV Software (Phoenix Flow Systems, San Diego, CA, USA).

[3] = test system: MCF-7 cells; assay: Cellular 59Fe uptake from 59Fe2-transferrin; assay type: cell-based, human; design: key to Uptake 59Fe, Ave / Uptake 59Fe: % of internalized 59Fe in untreated control cells
Excerpt: Human transferrin (Sigma) was labeled with ^56Fe or ^59Fe (PerkinElmer, Massachusetts, USA) to produce ^56Fe2-transferrin or ^59Fe2-transferrin (^59Fe2-Tf), respectively, with a final specific activity of 500 pCi/pmol Fe, as previously described. Unbound ^59Fe was removed by exhaustive vacuum dialysis against a large excess of 0.15 M NaCl buffered to pH 7.4 with 1.4% NaHCO3 by standard methods.
The ability of the chelators to prevent cellular ^59Fe uptake from ^59Fe2-transferrin was examined using standard techniques. In brief, confluent MCF-7 cells in 6-well plates were incubated with 0.75 μM ^59Fe2-Tf for 3 h/37°C in the presence of Bp4eT or its metabolites (25 μM). The cells were then washed four times with ice-cold PBS and the level of internalized ^59Fe was determined by incubating the cell monolayer for 30 min/4°C with the general protease, Pronase (1 mg/mL; Sigma-Aldrich). The cells were then removed from the monolayer with a plastic spatula on ice and centrifuged for 1 min/12,000 x g/4°C. The supernatant represents membrane-bound, Pronase-sensitive ^59Fe that was released by the protease, while the Pronase-insensitive fraction represents internalized ^59Fe. The amount of internalized ^59Fe was expressed as a percentage of ^59Fe internalized by control (untreated) cells.

[4] = test system: caspase 9; assay: Caspase activity, luminescent kit, caspase 9; assay type: cell-based, human; settings: for Caspase 9 activity, % of the control: 100 nM, MCF-7, corrected for viability; for kaspáza 9, průměry (means of raw signal): mean of 4 experiments; for kaspáza 9, raw signal / kaspáza 9, signal / viabilita: individual experiments by date
Description: as §1

[5] = 3 hodiny, mean, normalised to viability
[6] = 3 hodiny, normalised to viability
[7] = 3 hodiny, normalised to viability, mean
[8] = 24 hodin, mean, normalised to viability
[9] = 24 hodin, normalised to viability
[10] = 24 hodin, normalised to viability, mean
[11] = 72 hodin, mean, normalised to viability
[12] = 72 hodin, normalised to viability
[13] = 72 hodin, normalised to viability, mean

CCNC(=S)NN=C(c1ccccc1)c1ccccn1 [Bp4eT, 2-benzoylpyridine 4-ethyl-3-thiosemicarbazone]
Caspase 8 activity, % of the control ([1]; 24 h): 125%
Caspase 8 activity, % of the control ([1]; 72 h): 189%
kaspáza 8, % kontroly ([1]; 3 hodiny (3 h), % of control): 95.86%
kaspáza 8, průměry (means of raw signal) ([1]; 3 hodiny (3 h)): 1343.75
kaspáza 8, raw signal ([1]; 3 hodiny): 2059 and 1157 and 1253.5 and 905.5
kaspáza 8, raw signal, průměry ([1]; 3 hodiny, mean): 1343.75
kaspáza 8, % kontroly [1, 5]: 100.78 % kontroly
kaspáza 8, signal / viabilita [1, 6]: 21.3728 and 12.0099 and 13.0116 and 9.399
kaspáza 8, signal / viabilita, průměry [1, 7]: 13.9484
kaspáza 8, % kontroly ([1]; 24 hodin (24 h), % of control): 66.28%
kaspáza 8, průměry (means of raw signal) ([1]; 24 hodin (24 h)): 1049.5
kaspáza 8, raw signal ([1]; 24 hodin): 1182.5 and 845.5 and 1242.5 and 927.5
kaspáza 8, raw signal, průměry ([1]; 24 hodin, mean): 1049.5
kaspáza 8, % kontroly [1, 8]: 125.02 % kontroly
kaspáza 8, signal / viabilita [1, 9]: 22.3747 and 15.9981 and 23.51 and 17.5497
kaspáza 8, signal / viabilita, průměry [1, 10]: 19.8581
kaspáza 8, % kontroly ([1]; 72 hodin (72 h), % of control): 50.72%
kaspáza 8, průměry (means of raw signal) ([1]; 72 hodin (72 h)): 3576.88
kaspáza 8, raw signal ([1]; 72 hodin): 5283 and 3499.5 and 2666 and 2859
kaspáza 8, raw signal, průměry ([1]; 72 hodin, mean): 3576.88
kaspáza 8, % kontroly [1, 11]: 188.91 % kontroly
kaspáza 8, signal / viabilita [1, 12]: 195.017 and 129.181 and 98.4127 and 105.537
kaspáza 8, signal / viabilita, průměry [1, 13]: 132.037
Therapeutic index, IC50 non-cancerous cells / IC50 neoplastic cells ([2]; 3T3/HL-60): 436.3
Therapeutic index, IC50 non-cancerous cells / IC50 neoplastic cells ([2]; H9c2/HL-60): 174.7
MTT, relative to control (0 = 100) ([2]; HL-60, 10 000 b/j, 0.1 nM, průměr (mean)): 98.01
MTT, relative to control (0 = 100) ([2]; HL-60, 10 000 b/j, 0.1 nM, single experiment (date)): 96.1425 and 103.96 and 95.2755 and 95.4167 and 99.2528
MTT, relative to control (0 = 100) ([2]; HL-60, 10 000 b/j, 0.3 nM, průměr (mean)): 96.66
MTT, relative to control (0 = 100) ([2]; HL-60, 10 000 b/j, 0.3 nM, single experiment (date)): 99.4278 and 92.0645 and 96.8892 and 98.2749
MTT, relative to control (0 = 100) ([2]; HL-60, 10 000 b/j, 1 nM, průměr (mean)): 97.15
MTT, relative to control (0 = 100) ([2]; HL-60, 10 000 b/j, 1 nM, single experiment (date)): 95.2755 and 96.4389 and 98.8804 and 97.9877
MTT, relative to control (0 = 100) ([2]; HL-60, 10 000 b/j, 3 nM, průměr (mean)): 62.98
MTT, relative to control (0 = 100) ([2]; HL-60, 10 000 b/j, 3 nM, single experiment (date)): 50.186 and 52.1752 and 67.6874 and 81.8744
MTT, relative to control (0 = 100) ([2]; HL-60, 10 000 b/j, 10 nM, průměr (mean)): 3.98
MTT, relative to control (0 = 100) ([2]; HL-60, 10 000 b/j, 30 nM, průměr (mean)): 1.50
MTT, relative to control (0 = 100) ([2]; HL-60, 10 000 b/j, 100 nM, průměr (mean)): 1.69
IC50 ([2]; HL-60, 10 000 b/j, single experiment (date), read-out: IC50 měřené): 2.84 nM and 3.65 nM and 4.08 nM
IC50 ([2]; Homo sapiens, HL-60, 72 h, HL-60, 72 h/37°C, mean ± SD, n ≥ 4, read-out: IC50): 3 ± 1 nM
IC50 ([2]; Homo sapiens, HL-60, HL-60, 10 000 b/j, průměr (mean), read-out: IC50 měřené): 3.48 nM
IC50 ([2]; Homo sapiens, HL-60, HL-60, 10 000 b/j, single experiment (date), read-out: IC50 měřené): 3.35 nM
Internalized 59Fe uptake, % of the control ([3]; 25 μM, 3 h/37°C, MCF-7, 0.75 μM 59Fe2-Tf): 11.5%
Uptake 59Fe, Ave ([3]; average of all replicates, Control Ave = 100): 11.5476
Uptake 59Fe ([3]; single replicate (three per date), Control Ave = 100): 9.2904 and 11.2475 and 13.4264 and 10.306 and 10.873 and 13.9435 and 11.6905 and 10.1589 and 12.9919
Caspase 9 activity, % of the control ([4]; 24 h): 125%
Caspase 9 activity, % of the control ([4]; 72 h): 249%
kaspáza 9, % kontroly ([4]; 3 hodiny (3 h), % of control): 104.85%
kaspáza 9, průměry (means of raw signal) ([4]; 3 hodiny (3 h)): 3805.38
kaspáza 9, raw signal ([4]; 3 hodiny): 6578.5 and 2900.5 and 3521 and 2221.5
kaspáza 9, raw signal, průměry ([4]; 3 hodiny, mean): 3805.38
kaspáza 9, % kontroly [4, 5]: 111.23 % kontroly
kaspáza 9, signal / viabilita [4, 6]: 68.2861 and 30.1078 and 36.5487 and 23.0596
kaspáza 9, signal / viabilita, průměry [4, 7]: 39.5005
kaspáza 9, % kontroly ([4]; 24 hodin (24 h), % of control): 66.84%
kaspáza 9, průměry (means of raw signal) ([4]; 24 hodin (24 h)): 2704
kaspáza 9, raw signal ([4]; 24 hodin): 3466.5 and 1743.5 and 3244.5 and 2361.5
kaspáza 9, raw signal, průměry ([4]; 24 hodin, mean): 2704
kaspáza 9, % kontroly [4, 8]: 124.96 % kontroly
kaspáza 9, signal / viabilita [4, 9]: 65.5914 and 32.9897 and 61.3908 and 44.6831
kaspáza 9, signal / viabilita, průměry [4, 10]: 51.1638
kaspáza 9, % kontroly ([4]; 72 hodin (72 h), % of control): 66.22%
kaspáza 9, průměry (means of raw signal) ([4]; 72 hodin (72 h)): 14621.1
kaspáza 9, raw signal ([4]; 72 hodin): 22930.5 and 14080 and 11064.5 and 10409.5
kaspáza 9, raw signal, průměry ([4]; 72 hodin, mean): 14621.1
kaspáza 9, % kontroly [4, 11]: 249.26 % kontroly
kaspáza 9, signal / viabilita [4, 12]: 846.456 and 519.749 and 408.435 and 384.256
kaspáza 9, signal / viabilita, průměry [4, 13]: 539.724
